Data: US20180297966A1, “COMPOUNDS, COMPOSITIONS, AND METHODS OF MAKING AND USING THE SAME” (INNOVATIVE ANESTHETICS, LLC, priority 2015, published 2018)
Where “and” joins values, the source holds several entries; their conditions need not be identical. Equal values may be shown once. Where a name gives a salt, the structure may show the parent alone. Read-outs that look alike come from different tables or passages of the source.

How the values were obtained:
[1] = pH of exemplary salts with respect to concentration (% w/v); type: physicochemical
[2] = tested on: rats (hindpaw heat pain); test: Hindpaw withdrawal latency to a thermal stimulus after injection of a caine salt; type: in vivo, Sprague Dawley rats; settings: 1% by weight solution in water, 100 μl injected into hindpaw of rats, 10 minutes post-injection, compared to naïve animals, N=10 animals/group, cutoff 32 seconds
Procedure: Male Sprague Dawley® rats (200-300 g, Charles River) were housed in groups of two and were maintained in a standard 12-h light/dark cycle and testing was completed in the light portion of the cycle between 09:00-12:00. Animals were placed into the behavioural procedure room 30 min prior to testing to acclimate. When not in testing sessions, food and water were made available ad libitum. Animal testing procedures complied with the ethical guidelines and standards established by the University of Florida's Institutional Animal Care & Use Committee and with the Guide for Care and Use of Laboratory Animals (National Research Council Guide for the Care and Use of Laboratory Animals. Washington, D.C., National Academy Press; 1996.).
1% by weight solutions of 3a-3h were injected into the hindpaw of rats and withdrawal latency to a thermal stimulus was recorded 10 minutes post-injection. Response to hindpaw heat pain was determined by placing unrestrained rats on a clear glass platform under a small plastic cage and rats habituated for 5 min. A radiant heat source was aimed directly under the ventral hindpaw surface and the time to paw withdrawal was recorded. Baseline responses were obtained under naïve conditions (e.g., no injection), while post-treatment effects of caine salts 3a-3h in the respective vehicle (water) were assessed for 10 minutes following injection (100 μl). A cutoff of 32 seconds was used to prevent tissue damage.

CCCNC(C)C(=O)Nc1c(C)csc1C(=O)OC (stereo not shown) [Articaine hydrochloride, reference compound]
pH ([1]; Conc. 2% w/v): 4.78 | pH ([1]; Conc. 5% w/v): 4.62 | pH ([1]; Conc. 10% w/v): 4.22

CCCNC(C)C(=O)Nc1c(C)csc1C(=O)OC.O=C1NS(=O)(=O)c2ccccc21 (stereo not shown) [Articaine saccharinate, Articaine Saccharinate]
pH [1]: 3.83 and 4.15 | withdrawal latency to a thermal stimulus [2]: significant increase in latency time

CC1=CC(=O)NS(=O)(=O)O1.CCCCN1CCCCC1C(=O)Nc1c(C)cccc1C (stereo not shown) [Bupivacaine acesulfamate, Bupivacaine Acesulfamate]
pH [1]: 4.25 and 5.13 and 5.38 | withdrawal latency to a thermal stimulus [2]: significant increase in latency time

CCCCN1CCCCC1C(=O)Nc1c(C)cccc1C (stereo not shown) [Bupivacaine hydrochloride, reference compound]
pH ([1]; Conc. 2% w/v): 5.22 | pH ([1]; Conc. 5% w/v): 4.81 | pH ([1]; Conc. 10% w/v): 4.23

CCCCN1CCCCC1C(=O)Nc1c(C)cccc1C.O=C1NS(=O)(=O)c2ccccc21 (stereo not shown) [Bupivacaine saccharinate, Bupivacaine Saccharinate]
pH [1]: 3.84 and 3.66 and 5.19 | withdrawal latency to a thermal stimulus [2]: significant increase in latency time

CC1=CC(=O)NS(=O)(=O)O1.CNC[C@H](O)c1ccc(O)c(O)c1 [Epinephrine acesulfamate, Epinephrine Acesulfamate]
pH [1]: 4.01 and 4.14 and 4.34

CNC[C@H](O)c1ccc(O)c(O)c1 [Epinephrine hydrochloride, reference compound]
pH ([1]; Conc. 2% w/v): 4.84 | pH ([1]; Conc. 5% w/v): 3.91 | pH ([1]; Conc. 10% w/v): 2.72

CNC[C@H](O)c1ccc(O)c(O)c1.O=C1NS(=O)(=O)c2ccccc21 [Epinephrine saccharinate, Epinephrine Saccharinate]
pH [1]: 3.57 and 4.03 and 4.41

CC1=CC(=O)NS(=O)(=O)O1.CCN(CC)CC(=O)Nc1c(C)cccc1C [Lidocaine acesulfamate]
pH [1]: 4.84 and 5.08 and 5.26

CCN(CC)CC(=O)Nc1c(C)cccc1C [Lidocaine hydrochloride, reference compound]
pH ([1]; Conc. 2% w/v): 4.65 | pH ([1]; Conc. 5% w/v): 4.53 | pH ([1]; Conc. 10% w/v): 3.94

CCN(CC)CC(=O)Nc1c(C)cccc1C.O=C1NS(=O)(=O)c2ccccc21 [Lidocaine saccharinate]
pH [1]: 4.31 and 4.41 and 4.51

CC1=CC(=O)NS(=O)(=O)O1.Cc1cccc(C)c1NC(=O)C1CCCCN1C (stereo not shown) [Mepivacaine acesulfamate]
pH ([1]; Conc. 2% w/v): 4.91 | pH ([1]; Conc. 5% w/v): 4.87 | pH ([1]; Conc. 10% w/v): 4.00 | withdrawal latency to a thermal stimulus [2]: significant increase in latency time

Cc1cccc(C)c1NC(=O)C1CCCCN1C (stereo not shown) [Mepivacaine hydrochloride, reference compound]
pH ([1]; Conc. 2% w/v): 4.53 | pH ([1]; Conc. 5% w/v): 3.77 | pH ([1]; Conc. 10% w/v): 3.73

Cc1cccc(C)c1NC(=O)C1CCCCN1C.O=C1NS(=O)(=O)c2ccccc21 (stereo not shown) [Mepivacaine saccharinate, Mepivacaine Saccharinate]
pH [1]: 4.06 and 4.23 | withdrawal latency to a thermal stimulus [2]: significant increase in latency time

CC1=CC([O-])=NS(=O)(=O)O1.[K+] [Potassium acesulfamate, potassium 6-methyl-1,2,3-oxathiazin-4-olate 2,2-dioxide, reference compound]
pH ([1]; Conc. 2% w/v): 5.98 | pH ([1]; Conc. 5% w/v): 6.33 | pH ([1]; Conc. 10% w/v): 5.78

CC1=CC(=O)NS(=O)(=O)O1.CCCNC(C)C(=O)Nc1ccccc1C (stereo not shown) [Prilocaine acesulfamate, Prilocaine Acesulfamate]
pH ([1]; Conc. 2% w/v): 5.16 | pH ([1]; Conc. 5% w/v): 5.00 | pH ([1]; Conc. 10% w/v): 4.71 | withdrawal latency to a thermal stimulus [2]: significant increase in latency time

CCCNC(C)C(=O)Nc1ccccc1C (stereo not shown) [Prilocaine hydrochloride, reference compound]
pH ([1]; Conc. 2% w/v): 4.60 | pH ([1]; Conc. 5% w/v): 3.42 | pH ([1]; Conc. 10% w/v): 2.10

CCCNC(C)C(=O)Nc1ccccc1C.O=C1NS(=O)(=O)c2ccccc21 (stereo not shown) [Prilocaine saccharinate, Prilocaine Saccharinate]
pH [1]: 4.47 and 4.96 and 5.04

Articaine Acesulfamate
withdrawal latency to a thermal stimulus [2]: significant increase in latency time
